Experimental data from ChEMBL document CHEMBL5053549, “Discovery of Potent and Novel Dual PARP/BRD4 Inhibitors for Efficient Treatment of Pancreatic Cancer” (J Med Chem, 2021).
Calls of active or inactive are those of the source. The calls are words filed in the database; no cut-off is given here.

Tests used:
[1] = target: Poly [ADP-ribose] polymerase 1 (Homo sapiens, UniProt P09874); assay: Inhibition of PARP1 in human SW1990 cells assessed as reversal of Olaparib-induced PARP1 accumulation in nucleus at 1 uM after 4 days by Western blot analysis; format: cell-based; details: time 4.0 day
[2] = system: Mus musculus; assay: Toxicity in BALB/c mouse xenografted with human SW1990 cells assessed as kidney damage at 15 mg/kg, ip administered for 28 consecutive days by H and E staining based […] microscopic analysis; format: organism-based; details: in vivo, 672 h, time 28 day
[3] = system: Mus musculus; assay: Toxicity in BALB/c mouse xenografted with human SW1990 cells assessed as lung damage at 15 mg/kg, ip administered for 28 consecutive days by H and E staining based […] microscopic analysis; format: organism-based; details: in vivo, 672 h, time 28 day
[4] = system: Mus musculus; assay: Toxicity in BALB/c mouse xenografted with human SW1990 cells assessed as liver damage at 15 mg/kg, ip administered for 28 consecutive days by H and E staining based […] microscopic analysis; format: organism-based; details: in vivo, 672 h, time 28 day
[5] = system: Mus musculus; assay: Toxicity in BALB/c mouse xenografted with human SW1990 cells assessed as kidney damage at 15 mg/kg, ip administered for 28 consecutive days in presence of 45 mg/kg Olaparib; format: organism-based; details: in vivo, 672 h, time 28 day
[6] = system: SW1990; assay: Induction of cell cycle arrest in human SW1990 cells assessed as accumulation of cells at G2/M phase at 4 uM incubated for 4 days by propidium iodide staining based flow cytometry (reference value: 5.89%); format: functional; details: time 4 day
[7] = system: SW1990; assay: Induction of cell cycle arrest in human SW1990 cells assessed as accumulation of cells at G0/G1 phase at 1 uM incubated for 4 days in presence of 3 uM Olaparib by propidium iodide staining based flow cytometry (reference value: 64.79%); format: functional; details: time 4 day
[8] = system: SW1990; assay: Effect on cell cycle progression in human SW1990 cells assessed as reduction in Olaparib-induced CCND1 expression at 1 uM after 4 days in presence of Olaparib by Western blot analysis; format: functional, cell-based; details: time 4.0 day
[9] = system: SW1990; assay: Induction of DNA damage in human SW1990 cells assessed as tail DNA at 4 uM incubated for 4 days by comet assay; format: functional, cell-based; details: time 4.0 day
[10] = system: SW1990; assay: Induction of DNA damage in human SW1990 cells assessed as tail DNA at 1 uM incubated for 4 days in presence of 3 uM Olaparib by comet assay; format: functional, cell-based; details: time 4.0 day
[11] = system: SW1990; assay: Inhibition of homologous recombinant repair in human SW1990 cells assessed as reduction in Olaparib-induced FOXM1 expression at 1 uM after 4 days in presence of Olaparib by Q-PCR analysis; format: functional, cell-based; details: time 4.0 day
[12] = system: SW1990; assay: Inhibition of homologous recombinant repair in human SW1990 cells assessed as reduction in Olaparib-induced Rad51 expression at 1 uM after 4 days in presence of Olaparib by Western blot analysis; format: functional, cell-based; details: time 4.0 day
[13] = system: Mus musculus; assay: Inhibition of homologous recombinant repair in human SW1990 cells xenografted in BALB/c mouse assessed as reduction in Rad51 expression at 45 mg/kg, ip after 4 days by immunohistochemical analysis; format: functional, organism-based; details: time 4.0 day
[14] = target: Bromodomain-containing protein 3 (Homo sapiens, UniProt Q15059); assay: Inhibition of recombinant BRD3 BD2 (unknown origin) incubated for 120 mins by TR-FRET assay
[15] = system: Mus musculus; assay: Inhibition of homologous recombinant repair in human SW1990 cells xenografted in BALB/c mouse assessed as reduction in BRCA1 expression at 45 mg/kg, ip after 4 days by immunohistochemical analysis; format: functional, organism-based; details: time 4.0 day
[16] = target: Bromodomain testis-specific protein (Homo sapiens, UniProt Q58F21); assay: Inhibition of recombinant BRDT BD2 (unknown origin) incubated for 120 mins by TR-FRET assay
[17] = system: Mus musculus; assay: Toxicity in BALB/c mouse xenografted with human SW1990 cells assessed as spleen damage at 45 mg/kg, ip administered for 28 consecutive days by H and E staining based […] microscopic analysis; format: organism-based; details: in vivo, 672 h, time 28 day
[18] = system: Mus musculus; assay: In vivo inhibition of BRD4 expression in human […] cells xenografted in BALB/c mouse at 45 mg/kg, ip administered for 28 consecutive days by Q-PCR analysis; format: functional, organism-based; details: time 28.0 day
[19] = system: Mus musculus; assay: In vivo inhibition of PARP1 expression in human […] cells xenografted in BALB/c mouse at 45 mg/kg, ip administered for 28 consecutive days by Western blot analysis; format: functional, organism-based; details: time 28.0 day
[20] = system: SW1990; assay: Induction of apoptosis in human SW1990 cells assessed as late apoptotic cells at 1 uM after 4 days by Annexin V-FITC and propidium iodide staining based flow cytometry (reference value: 6.22%); format: functional; details: time 4 day
[21] = system: SW1990; assay: Induction of apoptosis in human SW1990 cells assessed as early apoptotic cells at 2 uM after 4 days by Annexin V-FITC and propidium iodide staining based flow cytometry (reference value: […]%); format: functional; details: time 4 day
[22] = system: Mus musculus; assay: Effect on cell cycle progression in human SW1990 cells xenografted in BALB/c mouse assessed as reduction in CCND1 expression at 45 mg/kg, ip after 4 days by Western blot analysis; format: functional, organism-based; details: time 4.0 day
[23] = system: SW1990; assay: Effect on cell cycle progression in human SW1990 cells assessed as reduction in CCND1 expression at 1 to 2 uM after 4 days by Western blot analysis; format: functional, cell-based; details: dose 1-2 µM, time 4.0 day
[24] = system: SW1990; assay: Induction of DNA damage in human SW1990 cells assessed as tail DNA at 1 to 4 uM incubated for 4 days in presence of 3 uM Olaparib by comet assay; format: functional, cell-based; details: dose 1-4 µM, time 4.0 day

Chain of Poly [ADP-ribose] polymerase 1 (P09874 whole entry): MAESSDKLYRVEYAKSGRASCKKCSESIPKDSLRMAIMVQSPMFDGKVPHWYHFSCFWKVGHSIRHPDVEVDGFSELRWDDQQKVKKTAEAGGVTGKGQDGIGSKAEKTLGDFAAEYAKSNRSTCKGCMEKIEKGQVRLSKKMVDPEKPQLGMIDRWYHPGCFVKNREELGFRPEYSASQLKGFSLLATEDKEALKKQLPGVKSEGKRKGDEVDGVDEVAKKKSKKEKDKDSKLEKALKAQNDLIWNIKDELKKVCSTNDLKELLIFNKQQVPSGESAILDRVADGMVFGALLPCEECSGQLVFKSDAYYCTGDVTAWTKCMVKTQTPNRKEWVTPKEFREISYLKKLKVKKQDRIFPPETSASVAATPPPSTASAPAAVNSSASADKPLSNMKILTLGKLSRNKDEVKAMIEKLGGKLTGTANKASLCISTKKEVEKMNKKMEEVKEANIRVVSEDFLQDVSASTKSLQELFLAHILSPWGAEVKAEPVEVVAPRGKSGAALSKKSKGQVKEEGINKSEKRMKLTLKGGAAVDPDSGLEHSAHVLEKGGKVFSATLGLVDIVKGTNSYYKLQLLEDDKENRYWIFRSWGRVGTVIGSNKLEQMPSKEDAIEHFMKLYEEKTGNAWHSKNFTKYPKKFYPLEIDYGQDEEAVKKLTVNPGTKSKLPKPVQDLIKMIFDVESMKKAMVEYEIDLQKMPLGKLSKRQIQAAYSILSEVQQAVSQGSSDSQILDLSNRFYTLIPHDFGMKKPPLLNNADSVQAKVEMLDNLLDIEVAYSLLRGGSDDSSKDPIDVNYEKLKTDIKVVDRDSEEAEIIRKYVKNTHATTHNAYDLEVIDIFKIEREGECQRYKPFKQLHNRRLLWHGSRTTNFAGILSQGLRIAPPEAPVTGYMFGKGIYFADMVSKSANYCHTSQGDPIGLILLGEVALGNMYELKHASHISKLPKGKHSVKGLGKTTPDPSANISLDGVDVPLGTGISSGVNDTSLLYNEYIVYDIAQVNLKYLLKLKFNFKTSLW
Chain of Bromodomain-containing protein 3 (Q15059 whole entry): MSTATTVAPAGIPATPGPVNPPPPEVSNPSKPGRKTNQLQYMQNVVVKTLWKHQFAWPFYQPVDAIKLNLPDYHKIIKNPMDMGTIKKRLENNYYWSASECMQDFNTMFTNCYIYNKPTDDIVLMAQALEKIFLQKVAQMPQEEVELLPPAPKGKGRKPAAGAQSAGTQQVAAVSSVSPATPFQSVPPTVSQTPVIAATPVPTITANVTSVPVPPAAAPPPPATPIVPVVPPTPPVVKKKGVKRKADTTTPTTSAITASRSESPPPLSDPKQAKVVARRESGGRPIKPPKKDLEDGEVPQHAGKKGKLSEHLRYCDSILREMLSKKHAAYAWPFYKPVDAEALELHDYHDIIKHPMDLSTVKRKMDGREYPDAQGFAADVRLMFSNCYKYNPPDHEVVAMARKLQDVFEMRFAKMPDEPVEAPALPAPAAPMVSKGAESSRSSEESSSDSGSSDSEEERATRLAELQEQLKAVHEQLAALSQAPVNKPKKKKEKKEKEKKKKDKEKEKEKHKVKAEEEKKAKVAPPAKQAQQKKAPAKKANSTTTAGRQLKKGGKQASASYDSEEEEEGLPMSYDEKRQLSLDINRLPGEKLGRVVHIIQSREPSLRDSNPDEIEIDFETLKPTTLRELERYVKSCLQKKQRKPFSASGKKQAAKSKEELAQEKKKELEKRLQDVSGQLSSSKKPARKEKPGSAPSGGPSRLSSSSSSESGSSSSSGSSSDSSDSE

Cc1sc2c(c1C)C(c1ccc(Cl)cc1)=N[C@@H](CC(=O)OC(C)(C)C)c1nnc(C)n1-2
inhibition [1]: Active
Activity [2]: Non-Toxic
Activity [3]: Non-Toxic
Activity [4]: Non-Toxic
Activity [5]: Non-Toxic
Activity [6]: 5.51%
Activity [7]: 71.53%
Activity [8]: Active
Activity [9]: Active
Activity [10]: Active
inhibition [11]: Active
inhibition [12]: Active

CC[C@@H]1C(=O)N(C)c2cnc(N(C)c3ccc(-c4nc5c(C(N)=O)cccc5[nH]4)cc3OC)nc2N1C1CCCC1
inhibition [13]: Active
IC50 [14]: 123 nM
inhibition [15]: Active
IC50 [16]: 1400 nM
Activity [17]: Non-Toxic
Activity [18]: Active
Activity [19]: Active
Activity [20]: 28.4%
Activity [21]: 2.81%
Activity [22]: Active
Activity [23]: Active
Activity [24]: Active
